# From patent publication US5677297A, “Benzazepine-, benzoxazepine- and benzothiazepine-n-acetic acid derivatives, process for their preparation and pharmaceutical compositions containing them” (Solvay Pharmaceuticals GmbH, priority 1995, dated 1997)
# pIC50, pKi: −log10 of the molar value.
# Legend:
# [1] = In vivo determination of the effect on diuresis/natriuresis in volume-loaded rats; design: species or system rat (male Wistar); conditions: volume loading 120 minutes after administration, urine collected over 60 min
# Procedure: 4. In vivo determination of the effect of the substances on diuresis/natriuresis in volume-loaded rats.
# The in vivo activity was investigated in volume-loaded rats. In this experiment a high cardiac filling pressure was caused by infusion of isotonic sodium chloride solution, which results in ANP release and thus diuresis/natriuresis.
# The tests are carried out with male Wistar rats having a body weight of 200-400 g. Under neuroleptanalgesia (fentanyl; Hypnorm™, manufactured by Janssen), a catheter was placed in the right femoral vein for the baseline infusion and the volume loading with isotonic sodium chloride solution. After the abdominal cavity had been opened, a second catheter was inserted into the bladder, and the urethra was tied off so that it was possible to measure the urine volume, natriuresis and kaliuresis.
# The abdominal cavity was closed again and the animals received a continuous infusion with sodium chloride solution (0.5 ml/100 g body weight) throughout the 2 hours of the test. After an equilibration period of 30 minutes, in a preliminary phase before the test substance was given, urine samples were collected three times over a period of 10 minutes in each case. These preliminary values ("predrug" values) were determined in order to check that there was a continuous flow of urine in the test animals.
# The solutions containing test substances were then administered intravenously (bolus injection into the femoral vein) or orally (by gavage) to groups of 10 rats each. With both modes of administration, in each case one control group of animals received only placebo solutions which contained no active substance. 5 Minutes after i.v. administration or 120 minutes after oral administration of the substances, the rats were loaded with an increased volume of sodium chloride solution i.v. (2 ml/100 g body weight in 2 minutes) and the urine was collected over a period of 60 min. The amounts of urine produced in this period were determined, and the sodium and potassium contents therein were measured. The increase in excretion which took place under volume loading by comparison with the preliminary values was deduced from the resulting amounts of urine.
# Furthermore, the amounts of sodium and potassium excreted under volume loading after administration of test substance are also indicated as a percentage of the amounts of sodium and potassium excreted under volume loading after placebo administration.
# [2] = design: species or system mouse (male); conditions: mouse, in vivo, po, 4320 min
# Procedure: 1. Determination of the minimum toxic dose
# Male mice weighing 20-25 g received oral administrations of maximum doses of 300 mg/kg of the test substance. The animals were carefully observed for signs of toxicity for 3 hours. In addition, all signs and deaths over a period of 72 hours after administration were recorded. Accompanying signs were likewise observed and recorded. If death or signs of severe toxicity were observed, further mice were given increasingly lower doses until signs of toxicity no longer appeard. The lowest dose which caused death or signs of severe toxicity is indicated in following Table A as the minimum toxic dose. The example numbers listed in Table A refer to the following preparation examples.
# [3] = biological target: neutral endopeptidase (NEP), purified NEP (E.C.3.4.24.11) (Homo sapiens, UniProt P08473); experiment: In vitro investigation of the NEP-inhibitory effect (hydrolytic degradation of met-enkephalin); assay type: biochemical; conditions: substrate met-enkephalin, 37° C., pH 7.4
# neutral endopeptidase (NEP), purified NEP (E.C.3.4.24.11), sequence (P08473 whole entry): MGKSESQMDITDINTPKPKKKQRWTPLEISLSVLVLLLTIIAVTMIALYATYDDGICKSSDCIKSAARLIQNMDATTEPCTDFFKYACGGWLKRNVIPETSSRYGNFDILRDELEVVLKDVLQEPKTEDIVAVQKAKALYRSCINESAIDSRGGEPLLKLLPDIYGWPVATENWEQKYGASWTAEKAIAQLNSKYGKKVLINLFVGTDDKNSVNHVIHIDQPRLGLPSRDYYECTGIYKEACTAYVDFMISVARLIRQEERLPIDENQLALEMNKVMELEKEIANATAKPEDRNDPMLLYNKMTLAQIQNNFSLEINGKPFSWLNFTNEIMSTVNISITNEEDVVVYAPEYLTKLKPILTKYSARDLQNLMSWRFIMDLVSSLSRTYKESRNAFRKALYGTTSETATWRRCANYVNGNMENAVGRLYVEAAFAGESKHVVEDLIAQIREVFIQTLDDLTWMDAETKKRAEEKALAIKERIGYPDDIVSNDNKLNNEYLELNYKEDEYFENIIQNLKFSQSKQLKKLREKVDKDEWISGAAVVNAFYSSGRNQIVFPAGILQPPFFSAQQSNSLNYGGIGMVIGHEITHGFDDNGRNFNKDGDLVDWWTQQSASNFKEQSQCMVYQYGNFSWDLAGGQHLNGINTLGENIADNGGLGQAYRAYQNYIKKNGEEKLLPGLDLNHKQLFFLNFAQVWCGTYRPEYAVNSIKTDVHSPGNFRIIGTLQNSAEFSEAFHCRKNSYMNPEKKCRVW
# Procedure: 2. In vitro investigation of the NEP-inhibitory effect of the substances and determination of the affinity of the substance molecules for the enzyme molecule. […] The Ki (inhibitor constant) of each substance was determined as a measure of its inhibitory activity. The Ki of a test substance with enzyme-inhibiting activity is the dissociation constant for the enzyme/test substance complex or the (enzyme/substrate)--test substance complex and has units of concentration.
# To carry out the test, respective 100 μl samples of various incubation solutions containing 10 ng of purified NEP (E.C.3.4.24.11) and in each case different amounts of test substance and of substrate (met-enkephalin)and 50 mM tris buffer (=tris(hydroxymethyl)aminomethane/HCl, pH 7.4) were prepared.
# For each test substance, 24 different incubation solutions were prepared with 3 different test substance concentrations respectively combined with met-enkephalin contents of 2, 5, 7, 10, 12, 15, 40 and 100 μm.
# In each test, two types of control incubation solutions were also processed, on the one hand enzyme controls which contain no test substance, and on the other hand substrate controls which contain neither enzyme nor test substance.
# The incubation solutions were incubated in a shaking water bath at 37° C. for 45 minutes. The enzyme reaction was started after 15 minutes by adding the substrate (metenkephalin) and was stopped at the end of the incubation time by heating at 95° C. for 5 minutes. The stopped incubation solution was then centrifuged at 12,000×g for 3 minutes, and the concentrations of unreacted substrate and of hydrolysis products formed by the enzymatic reaction were determined in the supernatant. For this purpose, samples of each of the respective supernatants were fractionated by HPLC (high-pressure liquid chromatography) on hydrophobized silica gel, and the products of the enzymatic reaction and unreacted substrate were determined by photometry at a wavelength of 205 nm. The HPLC separation was carried out using a column (4.6×250 mm) which contains Encapharm™ 100 RP18 having an average particle size of 5 μm as reversed phase separation material. The solvent flow rate was 1.4 ml/min, and the column was warmed to 40° C. Mobile phase A was 5 mM H3 PO4, pH 2.5, and mobile phase B was acetonitrile +1% 5 mM H3 PO4, pH 2.5.
# The Ki for each test substance was calculated in a known manner from the concentrations of hydrolysis products and unreacted substrate measured in the various samples. […] The example numbers indicated in Table B refer to the following preparation examples.
# [4] = biological target: T1, endothelin-converting enzyme (ECE) (Homo sapiens, UniProt P42892); experiment: In vitro investigation of the ECE-inhibitory effect (recombinant human ECE in CHO cell membrane fraction); assay type: biochemical; conditions: 24 μM synthetic peptide substrate, pH 7.0, 37° C., 60 min
# T1 construct: expressed in transfected cells; host or cells: CHO cells (Chinese hamster ovary), membrane fraction
# T1 sequence (P42892 1-770): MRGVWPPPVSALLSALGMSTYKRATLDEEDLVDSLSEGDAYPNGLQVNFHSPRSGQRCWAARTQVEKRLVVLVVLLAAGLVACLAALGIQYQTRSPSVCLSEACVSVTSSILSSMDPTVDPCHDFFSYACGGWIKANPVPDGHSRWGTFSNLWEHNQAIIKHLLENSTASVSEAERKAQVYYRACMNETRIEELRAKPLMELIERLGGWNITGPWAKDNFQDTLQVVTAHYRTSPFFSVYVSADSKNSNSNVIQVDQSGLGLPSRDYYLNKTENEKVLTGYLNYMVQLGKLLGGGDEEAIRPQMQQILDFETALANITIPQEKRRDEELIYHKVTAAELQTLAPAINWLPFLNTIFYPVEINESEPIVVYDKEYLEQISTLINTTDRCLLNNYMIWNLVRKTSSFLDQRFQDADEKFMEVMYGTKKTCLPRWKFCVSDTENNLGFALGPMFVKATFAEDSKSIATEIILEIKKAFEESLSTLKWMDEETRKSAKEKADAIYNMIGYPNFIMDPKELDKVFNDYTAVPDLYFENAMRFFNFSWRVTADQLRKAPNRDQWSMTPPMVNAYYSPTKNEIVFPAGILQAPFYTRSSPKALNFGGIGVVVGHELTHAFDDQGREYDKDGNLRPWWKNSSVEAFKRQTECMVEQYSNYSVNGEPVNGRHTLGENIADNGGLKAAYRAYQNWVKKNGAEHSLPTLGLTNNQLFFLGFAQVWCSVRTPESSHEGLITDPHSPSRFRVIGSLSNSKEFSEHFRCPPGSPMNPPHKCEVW
# Procedure: 3. In vitro investigations of the ECE-inhibitory effect of the substances.
# The IC50 of the substances was determined as a measure of their inhibitory activity. The IC50 of a test substance with enzyme-inhibiting activity is the concentration of the test substance at which 50% of the enzymatic activity of ECE is inhibited.
# Preparation of the ECE-containing endothelial cell membrane fraction.
# Egg cells from the Chinese hamster (Chinese hamster ovary cells, hereinafter CHO cells) in which there was recombinant expression of human ECE [see Schmidt et al., Federation of European Biochemical Societies Letters 356 238-43 (1994)] were lysed, and the cell membranes were removed by centrifugation at 10,000×g for 10 min. The cell membranes were washed by resuspension and repeated centrifugation three times. The ECE-containing cell membrane fraction was resuspended in 100 mM tris/HCl buffer (tris(hydroxymethyl)aminomethane/HCl, pH 7.0, containing 250 mM NaCl) and stored frozen at -70° C. before the enzyme test.
# To carry out the test, respective 100 μl samples of various incubation solutions each containing 5 μg protein from an ECE-containing preparation of endothelial cell membranes and different amounts of test substance and 24 μM substrate (synthetic peptide: H2 N-Asp-Ile-Ala-Trp-Phe-Asn-Thr-Pro-Glu-His-Val-Val-Pro-Tyr-Gly-Leu-Gly-COOH) (SEQ ID NO:1) and 100 mM tris buffer (tris(hydroxymethyl)aminomethane/HCl, pH 7.0, containing 250 mM sodium chloride) were prepared. […]
# The incubation solutions were preincubated at 37° C. for 15 min before the substrate was added. […] The hydrolysis products H2N-Asp-Ile-Ala-Trp-COOH (SEQ ID NO:2) and H2 N-Phe-Asn-Thr-Pro-Glu-His-Val-Val-Pro-Tyr-Gly-Leu-Gly-COOH (SEQ ID NO:3) formed from the substrate by the enzymatic reaction were determined with the aid of high-pressure liquid chromatography (HPLC). […] The IC50 was calculated for each test substance in a known manner from the concentrations of hydrolysis products measured in the various samples.
SMILES,Minimum toxic dose [2] [mg/kg],pKi [3],also measured
"CCOC(=O)[C@H](CCc1ccccc1)CC1(C(=O)N[C@H]2CCc3ccccc3N(CC(=O)O)C2=O)CCCC1 [Example 4, (3S,2'R)-3-{1-[2'-(Ethoxycarbonyl)-4'-phenylbutyl]cyclopentane-1-carbonylamino}-2,3,4,5-tetrahydro-2-oxo-1H-1-benzazepine-1-acetic acid]",–,–,Increase in the excretion of urine under volume loading after administration of test substance as % based on the increase after placebo administration ([1]; 15 mg/kg p.o.): 196.5%; Increase in the excretion of urine under volume loading after administration of test substance as % based on the increase after placebo administration ([1]; 51 mg/kg p.o.): 271%
"O=C(O)CN1C(=O)C(NC(=O)C2(CC(CCc3ccccc3)C(=O)O)CCCC2)CCc2ccccc21 (stereo not drawn) [Example 6, 3-[1-(2'-Carboxy-4'-phenylbutyl)cyclopentane-1-carbonylamino]-2,3,4,5-tetrahydro-2-oxo-1H-1-benzazepine-1-acetic acid]",> 300,9.17,–
"COCCOC[C@H](CC1(C(=O)N[C@H]2COc3ccccc3N(CC(=O)O)C2=O)CCCC1)C(=O)O [Example 11, (3S,2'S)-3-{1-[2'-Carboxy-3'-(2-methoxyethoxy)propyl]cyclopentane-1-carbonylamino}-4-oxo-3,4-dihydro-1,5-benzoxazepine-5(2H)-acetic acid]",–,8.59,–
"O=C(O)CN1C(=O)[C@@H](NC(=O)C2(CC(CCOc3ccc(F)cc3)C(=O)O)CCCC2)CSc2ccccc21 (stereo partly drawn) [Example 13, (3R)-3-{1-[2'-Carboxy-4'-(4-fluorophenoxy)butyl]cyclopentane-1-carbonylamino}-4-oxo-3,4-dihydro-1,5-benzothiazepine-5(2H)-acetic acid]",–,9.12,–
COCCOC[C@H](CC1(C(=O)N[C@H]2CCc3ccccc3N(CC(=O)O)C2=O)CCCC1)C(=O)O [Example 22],–,8.67,–
O=C(O)CN1C(=O)C(NC(=O)C2(CC(CCc3cccc4ccccc34)C(=O)O)CCCC2)CCc2ccccc21 (stereo not drawn) [Example 24],> 300,9.00,–
O=C(O)CN1C(=O)C(NC(=O)C2(CC(CCOc3ccc(F)cc3)C(=O)O)CCCC2)CCc2ccccc21 (stereo not drawn) [Example 26],–,8.91,–
O=C(O)CN1C(=O)C(NC(=O)C2(CC(Cc3ccccc3)C(=O)O)CCCC2)CCc2ccccc21 (stereo not drawn) [Example 27],> 300,–,–
O=C(O)CN1C(=O)[C@@H](NC(=O)C2(CC(Cc3ccccc3)C(=O)O)CCCC2)CCc2ccccc21 (stereo partly drawn) [Example 29],–,8.97,–
O=C(O)CN1C(=O)[C@@H](NC(=O)C2(C[C@@H](CCc3ccccc3)C(=O)O)CCCC2)CCc2ccccc21 [Example 37],> 300,–,–
O=C(O)CN1C(=O)C(NC(=O)C2(CC(Cc3cccc4ccccc34)C(=O)O)CCCC2)CCc2ccccc21 (stereo not drawn) [Example 38],–,–,pIC50 [4]: 5.66
O=C(O)CN1C(=O)[C@@H](NC(=O)C2(C[C@@H](CCc3cccc4ccccc34)C(=O)O)CCCC2)CCc2ccccc21 [Example 39],–,–,pIC50 [4]: 6.28
